The record followed here is patent US5218125A, “Antihypertensive compound and method of use thereas” (Merck & Co., Inc., priority 1992, dated 1993).

The target in this test is T1, Angiotensin II (A II) receptor (Oryctolagus cuniculus, UniProt P34976).
T1 construct: 125I-Sar1,Ile8-angiotensin II displacement
T1 sequence (P34976 1-359): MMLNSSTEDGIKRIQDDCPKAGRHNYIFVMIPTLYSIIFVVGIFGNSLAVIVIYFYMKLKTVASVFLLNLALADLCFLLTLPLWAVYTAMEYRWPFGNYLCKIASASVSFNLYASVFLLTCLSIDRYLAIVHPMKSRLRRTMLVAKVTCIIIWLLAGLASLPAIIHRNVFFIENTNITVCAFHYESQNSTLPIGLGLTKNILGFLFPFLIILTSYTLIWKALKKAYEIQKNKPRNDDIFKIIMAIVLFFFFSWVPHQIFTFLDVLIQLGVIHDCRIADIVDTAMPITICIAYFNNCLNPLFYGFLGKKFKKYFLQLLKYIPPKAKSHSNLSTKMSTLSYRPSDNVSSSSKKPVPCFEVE
Description: Receptor binding assay using rabbit aortae membrane preparation (125I-Sar1 Ile8-angiotensin II displacement, "IC50" assay). As for the experimental part: This assay is also referred to herein as the "IC50 " assay.
RECEPTOR BINDING ASSAY USING RABBIT AORTAE MEMBRANE PREPARATION
Three frozen rabbit aortae (obtained from Pel-Freeze Biologicals) were suspended in 5 mM Tris-0.25M Sucrose, pH 7.4 buffer (50 mL) homogenized, and then centrifuged. The mixture was filtered through a cheesecloth and the supernatant was centrifuged for 30 minutes at 20,000 rpm at 4° C. The pellet thus obtained was resuspended in 30 ml of 50 mM Tris-5 mM MgCl2 buffer containing 0.2% Bovine Serum Albumin and 0.2 mg/mL Bacitratin and the suspension was used for 100 assay tubes. Samples tested for screening were done in duplicate. To the membrane preparation (0.25 mL) there was added ^125 I-Sar^1 Ile^8 -angiotensin II [obtained from New England Nuclear] (10 uL; 20,000 cpm) with or without the test sample and the mixture was incubated at 37° C. for 90 minutes. The mixture was then diluted with ice-cold 50 mM Tris-0.9% NaCl, pH 7.4 (4 mL) and filtered through a glass fiber filter (GF/B Whatman 2.4" diameter). The filter was soaked in scintillation cocktail (10 mL) and counted for radioactivity using Packard 2660 Tricarb liquid scintillation counter. […]

For the compound `CCCC(O)c1nc(Cl)c(CO)n1Cc1ccc(-c2ccccc2-c2nn[nH]n2)cc1` (stereo not shown) [Compound (I)], the “A II antagonist activity by the IC50 assay” value is “exhibits A II antagonist activity”.
